Data taken from PMC10747479, “Improving Bioaccessibility and Bioavailability of Isoflavone Aglycones from Chickpeas by Germination and Forming β-Cyclodextrin Inclusion Complexes” (Pharmaceutics, 2023).
Like-named read-outs stand apart in the source and are kept apart here.

Assays:
[1] = Oral pharmacokinetics of FMN and BCA in rat plasma after CSE or CSE/β-CD inclusion complex; format: in vivo, Sprague–Dawley (SD) rats; conditions: rats; for AUC(0-inf) / AUC(0-t) / Cmax / half-life / k el / Tmax: male, Sprague-Dawley, rat; for AUC(0-inf) / AUC(0-t) / Cmax / half-life / k el / Tmax / CL / Vd: plasma, FMN approx. 5 mg/kg, BCA approx. 18 mg/kg; for AUC(0-inf) / AUC(0-t) / Cmax / half-life / k el: po; for k el: read-out: Ke (converted); for time at which concentration in rat plasma reached the peak / relative bioavailability in the inclusion complex relative to the CSE: oral; for time at which concentration in rat plasma reached the peak: given the CSE or the inclusion complex; for relative bioavailability in the inclusion complex relative to the CSE: ratio of the AUC
Method: (§1) The specific pathogen-free (SPF) male Sprague–Dawley (SD) rats (average body weight, 220 ± 10 g) aged eight weeks old were purchased from Shanghai Slake Laboratory Animal Co., Ltd. (Shanghai, China). After being raised in an environment-controlled feeding room for 1 week, the SD rats were divided into three groups (groups A, B, and C), with six in each group. They were fasted for 12 h and supplied with unlimited water before the experiments. In group A, 200 mg of the CSE/β-CD inclusion complex (FMN: 1.04 mg, BCA: 3.58 mg) was weighed and prepared into a 3 mL suspension by pure water and then given to each rat by gavage. In group B, a certain amount of CSE with FMN of the same quality as that in the inclusion complex was weighed and prepared into a 3 mL suspension by pure water and then given to each rat by gavage. In group C, a certain amount of CSE, ensuring that the content of BCA was the same as that in the inclusion complex, was weighed and prepared into s 3 mL suspension by pure water and then given to each rat by gavage. The dosage of FMN and BCA in rats was controlled at approximately 5 mg/kg and 18 mg/kg, respectively. Approximately 300 μL rat retro-orbital blood samples were obtained and transferred to heparinized tubes […] at 0.083, 0.25, 0.50, 0.75, 1, 2, 4, 6, 8, 12, and 24 h following intragastric administration. After centrifuging at 3500 rpm for 10 min, the upper plasma was put in clean tubes and placed at −20 °C before use. The rats were killed using the carbon dioxide box after taking blood at the last time point. A batch of new SD rats was raised with the same grouping and administration method for the study of tissue composition. At 0.25 h after intragastric administration, the rats were killed, and the organs including hearts, livers, spleens, lungs, kidneys, and brains were quickly separated, put into centrifuge tubes, and temporarily stored at 4 °C.
To comparatively evaluate the pharmacokinetics of the isoflavones in CSE and the CSE/β-CD inclusion complex, the content of FMN and BCA in rat plasma was determined on a UPLC-MS/MS system equipped with a Waters ACQUITY UPLC and a Xevo TQ-S micro ESI-MS/MS system (Milford, America). An ACQUITY UPLC BEH-C18 (2.1 mm × 100 mm, 1.7 μm) column was applied for the separation work using 0.05% formic acid in water (A) and acetonitrile (B) as the mobile phase with a flow rate of 0.2 mL/min and a column temperature of 30 °C. The gradient elution program was as follows: 0-6 min, A 50%. The selected multiple reaction monitoring (MRM) modes in the negative ESI mode of the mass spectrometer were used for all the analytes, and the capillary voltage was set at 2.66 kV with a source temperature of 150 °C using nitrogen as the desolvation gas and cone gas. The CHL was used as an internal standard (IS).
All plasma samples were stored at −20 °C and thawed at room temperature. To precipitate the protein, a 100 μL plasma sample was precisely aspirated, adding 40 μL of the IS solutions and 260 μL of acetonitrile, and vortexing for 3 min. Then the mixture was centrifuged at 13,000 rpm for 10 min and the 5 μL supernatant was injected for = UPLC-MS/MS analysis.
Compared with the rats fed the CSE, the rats fed the inclusion complex had higher Cmax, longer elimination half-lives (t1/2), larger areas under the concentration–time curve (AUC), and lower apparent volumes of distribution (Vd) and plasma clearance (CL). […] This caused the content of FMN and BCA in rats to be higher and have a longer retention time. The relative bioavailability of the two isoflavones in the inclusion complex relative to the CSE was calculated using the ratio of the AUC. […] It is reported that β-CD and its derivatives can inhibit the activity of P-glycoprotein, which is closely related to the bioavailability of oral drugs. The decrease in P-glycoprotein activity can reduce the excretion of drugs from cells.

[2] = Tissue distribution of FMN and BCA in rats after oral CSE or inclusion complex; format: in vivo, Sprague–Dawley (SD) rats; conditions: 0.25 h after intragastric administration; for distribution characteristics of the contents in rat tissues: CSE or inclusion complex
Method: as §1
The contents of FMN and BCA in the tissues of rats were also determined by the above-established UPLC-MS/MS method.
The tissue was washed with normal saline to remove the residual blood, the water on the surface of the tissue was dried, and the tissue was weighed, cut into small pieces, and put into a centrifuge tube. Then, it was added to normal saline of the same amount as the tissue and ground into a homogenate. Then, 300 μL of the tissue homogenate was placed into a centrifuge tube, adding 60 μL of IS and 840 μL of acetonitrile to precipitate the protein. After centrifuging at 13,000 rpm for 10 min, the supernatant was collected and centrifuged again. Finally, the obtained supernatant was taken for subsequent analysis.

[3] = In vitro release in simulated gastric and intestinal fluid; format: physicochemical; conditions: artificial gastric juice and artificial intestinal juice, 37 °C, 100 rpm, up to 24 h
Method: According to the determination method of dissolution and release in Chinese Pharmacopoeia 2020, the in vitro sustained release of the isoflavones in the CSE/β-CD inclusion complex and CSE was determined on a SOTAX AT. 7× dissolution tester (Stetten, Switzerland) with a stirring rate of 100 rpm at 37 °C [16] using FMN and BCA as the evaluation index. Simulated gastric fluid (SGF) and simulated intestinal fluid (SIF) were used as release media. The preparation method of SGF was to mix 16.4 mL of the HCl solution (9.5–10.5% by volume) and 10 g of pepsin into 800 mL water, and finally adjust the volume to 1000 mL of water. The preparation of SIF was to add 6.8 g of potassium dihydrogen phosphate to 500 mL of water (use 0.1 M NaOH to adjust the pH to 6.8), then add 10 g of trypsin, and finally adjust the volume to 1000 mL of water. The CSE/β-CD inclusion complex (400.00 mg, containing 2.08 mg FMN and 7.16 mg BCA), CSE (94.12 mg, containing 2.08 mg FMN), and CSE (205.16 mg, containing 7.16 mg BCA) were weighed and added to 900 mL of release media, respectively. […] The sample was added to 3 times the volume of acetonitrile to remove the protein, then centrifuged at 10000 rpm for 10 min, and the obtained supernatant was analyzed by HPLC. […]

[4] = Inclusion ratio and drug loading of the CSE/β-CD inclusion complex; format: physicochemical; conditions: for inclusion ratio: CSE with β-CD, optimal conditions: β-CD/CSE 4:1, 40 °C, 400 rpm, 2 h; for drug loading in the CSE/β-CD inclusion complex: optimal conditions
Method: A saturated aqueous solution method was used to prepare the inclusion complexes. β-CD (456 mg) was dispersed into 20 mL of water and heated with a water bath. CSE was accurately weighed according to the mass ratio of β-CD/CSE at 7:1 (g/g) to 3:1 (g/g) and dissolved in a small amount of ethanol to obtain CSE ethanol suspension, which was slowly dripped into the β-CD aqueous solution under 30 to 70 °C and at a stirring speed of 200 rpm to 1000 rpm. The mixed solution was stirred for 0.5 h to 4 h. After cooling to room temperature, the mixture was placed at 4 °C for 24 h, and then filtered quickly. The filter residue was moistened with a small amount of ethanol and dried to obtain the β-CD/CSE inclusion complex. The amounts of BCA and FMN in the initial CSE (Mc) and filtrate (Mf) were determined under the same conditions as above using an Agilent 1260 Infinity II HPLC. The inclusion ratio of FMN and BCA was used as an evaluation index to optimize the preparation methods. The calculation formula of the inclusion ratio (R%) was as follows:(1) R%=1−Mf/Mc×100% where Mf is the mass of the remaining isoflavones in the filtrate and Mc is the mass of the isoflavones in the CSE initially added.

[5] = oral gavage of CSE/β-CD inclusion complex

Row | AUC(0-inf) [1, 5] [ng·h/mL] | AUC(0-t) [1, 5] [ng·h/mL] | Cmax [1, 5] [ng/mL] | half-life [1, 5] [h] | k el [1, 5] [s⁻¹] | AUC(0-inf) ([1]; oral gavage of CSE) [ng·h/mL] | AUC(0-t) ([1]; oral gavage of CSE) [ng·h/mL] | Cmax ([1]; oral gavage of CSE) [ng/mL] | half-life ([1]; oral gavage of CSE) [h] | k el ([1]; oral gavage of CSE) [s⁻¹] | Tmax ([1]; oral gavage of CSE) [h] | CL [1, 5] [L/h] | Vd [1, 5] [L] | CL ([1]; oral gavage of CSE) [L/h] | Vd ([1]; oral gavage of CSE) [L] | time at which concentration in rat plasma reached the peak [1] [min] | relative bioavailability in the inclusion complex relative to the CSE [1] [%] | content in the tissues, inclusion complex compared with CSE [2] | solubility and dissolution properties by forming the CSE/β-CD inclusion complex, compared with CSE [3] | SMILES | distribution characteristics of the contents in rat tissues [2] | also measured
1 | 72 ± 25.7 | 51.5 ± 12.3 | 21 ± 2.81 | 4.51 ± 2.07 | 5.56e-05 | 37 ± 12.9 | 30 ± 15.2 | 14.4 ± 1.46 | 3.84 ± 2.1 | 6.39e-05 | 0.25 | 75.79 ± 23.47 | 441.60 ± 140.88 | 148.14 ± 47.18 | 722.51 ± 197.97 | 15 | 171.6 | significantly higher | significantly improved | COc1ccc(-c2coc3cc(O)ccc3c2=O)cc1 [FMN, formononetin] | liver > kidneys > lungs > spleen > heart > brain | inclusion ratio [4]: 53.31%; drug loading in the CSE/β-CD inclusion complex [4]: 5.2 mg/g
2 | 173 ± 56.3 | 102 ± 45.3 | 22.4 ± 2.45 | 7.33 ± 3.07 | 3.06e-05 | 61.9 ± 15.5 | 37.6 ± 17.7 | 13.9 ± 3.17 | 4.63 ± 0.88 | 4.17e-05 | 0.25 | 93.83 ± 29.01 | 896.37 ± 113.90 | 252.24 ± 52.73 | 1635.82 ± 92.84 | 15 | 270.7 | significantly higher | significantly improved | COc1ccc(-c2coc3cc(O)cc(O)c3c2=O)cc1 [BCA, biochanin A] | liver > kidneys > lungs > spleen > heart > brain | inclusion ratio [4]: 81.79%; drug loading in the CSE/β-CD inclusion complex [4]: 17.9 mg/g
